Assay results published in US6284910A, “Farnesyl pyrophosphate analogs” (University of Kentucky Research Foundation, priority 1999, dated 2001).
“Also recorded” adds a separate entry of the source.

Key:
recombinant GGTase I = target: T1, recombinant GGTase I (Rattus norvegicus, UniProt P53610+Q04631); assay: Inhibition of CAAX GGTase I transfer of [^3 H]geranylgeranyl from [^3 H]GGPP to H-Ras-CVLL; format: biochemical
T1 construct: 6xHis (N); made in house; host or cells: Sf9 insect cells (baculovirus)
Description: The assay mixtures contained (in a final volume of 25 μl) various components as described in "Experimental Procedures". After incubation for 15 min at 37° C., the amount of [^3 H]prenyl group transferred to the appropriate protein substrate [H-Ras (CVLS) for FTase and H-Ras (CVLL) for CAAX GGTase] was measured by precipitation with ethanol-HCl. The assays contained 10 ng recombinant rat FTase, 5 μM H-Ras, and 0.6 μM [^3 H]FPP (33,000 dpm/pmol) or 100 ng recombinant rat CAAX GGTase, 5 μM H-Ras CVLL, and 1 μM [^3 H]GGPP (33,000 dpm/pmol) and the indicated concentration of unlabeled AGPP. […] Each value is the average of duplicate incubations and is representative of two separate experiments.
Unless otherwise stated, each reaction contained the following components in a final volume of 25 μl: 50 mM Tris-HCl (pH 7.4), 5 mM dithiothreitol, 20 μM Zwittergent (3-14), 1 μM [^3 H]GGPP (33,000 dpm/pmol; American Radiochemical Co.), 5 μM p21^H-ras CVLL, 5 μM ZnCl2, 5 mM MgCl2, 100 ng recombinant CAAX GGTase-1, and the indicated amount of unlabeled AGPP. Following incubation at 37° C. for 15 min, the amount of [^3 H]geranylgeranyl transferred was measured by ethanol-HCl precipitation followed by filtration on glass fiber filters. A blank value was determined in parallel incubation mixtures containing no enzyme and was subtracted from each reaction.
The assays contained 10 ng recombinant rat FTase, 5 μM H-Ras, and 0.6 μM [^3 H]FPP (33,000 dpm/pmol) or 100 ng recombinant rat CAAX GGTase, 5 μM H-Ras CVLL, and 1 μM [^3 H]GGPP (33,000 dpm/pmol) and the indicated concentration of unlabeled AGPP.

squalene synthase = target: T2, squalene synthase (Bos taurus, UniProt Q32KR6); assay: Inhibition of squalene synthase activity in bovine brain microsomes; format: biochemical; conditions: 0.05 mM [^3 H]FPP
T2 construct: squalene synthase activity present in bovine brain microsome fractions; from tissue; host or cells: bovine brain microsomes (crude)
T2 sequence (Q32KR6 1-417): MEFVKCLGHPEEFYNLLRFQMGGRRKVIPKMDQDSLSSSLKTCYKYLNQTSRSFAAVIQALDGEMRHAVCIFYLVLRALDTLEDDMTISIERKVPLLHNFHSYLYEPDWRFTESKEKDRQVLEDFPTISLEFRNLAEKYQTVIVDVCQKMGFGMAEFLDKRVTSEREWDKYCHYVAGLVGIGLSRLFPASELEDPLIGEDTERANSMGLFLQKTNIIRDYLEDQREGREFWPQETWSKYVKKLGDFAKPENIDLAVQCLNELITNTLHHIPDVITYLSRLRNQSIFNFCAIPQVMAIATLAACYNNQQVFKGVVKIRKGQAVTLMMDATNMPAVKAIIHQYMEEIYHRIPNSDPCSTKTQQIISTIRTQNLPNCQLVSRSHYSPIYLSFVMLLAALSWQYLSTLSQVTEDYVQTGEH
Description: FIG. 7. Inhibition of Squalene Synthase by AGPP. The initial rates of squalene synthase activity were determined from bovine brain microsomal preparations in the presence of the indicated concentration of unlabeled AGPP (filled squares) or unlabeled FPP (open triangles) under the in vitro conditions described in "Experimental Procedures." Crude bovine brain microsomes and 0.05 mM [^3 H]FPP (105 cpm/pmol) and unlabeled AGPP and FPP were added at the indicated concentrations and incubated for 30 min. at 37° C. The reactions were terminated with 40% (wt/vol) KOH and 95% ethanol. Authentic carrier squalene (20 μg) was added and the reactions extracted with petroleum ether. The amount of labeled lipid formed was measured by scintillation counting. […]
Assay for Squalene Synthase Activity--Initial rates of squalene synthase activity present in bovine brain microsome fractions were assayed as previously described (19) with minor modifications. […] The remaining sample was analyzed on Silica gel G 60 TLC plates by developing with hexane (33). […]
FIG. 7 depicts inhibition of Squalene Synthase by AGPP. The initial rates of squalene synthase activity were determined from bovine brain microsomal preparations in the presence of the indicated concentration of unlabeled AGPP (filled squares) or unlabeled FPP (open triangles) (77). […] The amount of labeled lipid formed was measured by scintillation counting.

With `C/C(=C\COP(=O)(O)OP(=O)(O)O)CC/C=C(\C)CNc1ccccc1` [AGPP, (E,E)-8-Aniline-3,7-dimethyl-2,6-octadiene pyrophosphate] the IC50 (recombinant GGTase I; 1 μM [^3 H]GGPP, 5 μM H-Ras CVLL, 37° C., 15 min) was 31 µM, the “GGTase I activity remaining” value (recombinant GGTase I; AGPP concentrations of greater than 100 μM, 15 min) was “approximately 20%” and the “selectivity: better inhibitor of FTase than GGTase I” value (recombinant GGTase I; FTase vs GGTase I) was 50 fold. For the same compound, the “inhibition of squalene synthase, in words” value (squalene synthase) was “does not Inhibit Squalene Synthase Activity; also recorded: far less potent in vitro inhibitor of squalene synthase activity than FPP; also recorded: far less potent in vitro inhibitor of squalene synthase activity than for FTase” and the IC50 (squalene synthase; 37° C., 30 min) was 1 mM.
